Like-named read-outs stand apart in the source and are kept apart here.
Experiments:
CYP3A4 [1] = molecular target: T1, CYP3A4 (Homo sapiens, UniProt P08684); assay: Kinetic parameters of MDZ hydroxylation in pooled HLMs in the presence of (−)-POH; format: in vitro ADME; conditions: 100 μM (−)-POH
Experimental: The supernatants obtained after centrifuging at 3000× g for 20 min at 4 °C were injected into LC-MS/MS for analysis. The experiment was performed using four separate samples.
Kinetic parameters were estimated using GraphPad Prism to plot activities against the log of MDZ concentration in the presence of (–)-POH.

CYP2C9 = CYP2C9 (Homo sapiens, UniProt P11712); assay: Direct CYP inhibition assay in pooled HLMs, CYP2C9 (tolbutamide)
CYP2B6 [2] = molecular target: T2, CYP2B6 (Homo sapiens, UniProt P20813); assay: Direct CYP inhibition assay in pooled HLMs, CYP2B6 (bupropion)
T2 sequence (P20813 1-491): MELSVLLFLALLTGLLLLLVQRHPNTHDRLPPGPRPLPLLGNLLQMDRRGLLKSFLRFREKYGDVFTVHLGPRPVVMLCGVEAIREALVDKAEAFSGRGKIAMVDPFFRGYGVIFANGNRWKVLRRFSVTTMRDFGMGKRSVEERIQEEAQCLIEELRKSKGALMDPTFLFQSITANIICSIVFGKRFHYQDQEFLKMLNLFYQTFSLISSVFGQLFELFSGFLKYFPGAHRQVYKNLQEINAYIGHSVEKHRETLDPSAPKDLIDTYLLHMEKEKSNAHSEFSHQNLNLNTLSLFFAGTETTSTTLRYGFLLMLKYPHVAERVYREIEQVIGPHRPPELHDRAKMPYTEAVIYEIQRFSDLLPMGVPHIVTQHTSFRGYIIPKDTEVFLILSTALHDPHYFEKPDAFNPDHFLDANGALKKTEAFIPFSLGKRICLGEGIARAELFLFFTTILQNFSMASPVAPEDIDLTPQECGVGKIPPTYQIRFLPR

CYP3A4 [3] = molecular target: T1, CYP3A4
Experimental: To assess the effect of POH on the kinetics of the formation of 1′-hydroxymidazolam (1′-OH-MDZ) and 4-hydroxymidazolam (4-OH-MDZ), 5 μM MDZ was incubated with POH (0–100 μM) in hHOs for 24 h at 37 °C in a CO2 incubator. Samples were incubated in 24-well culture plates, with each well containing a total volume of 0.7 mL. At 2, 4, 6, and 24 h, 70 μL of medium was sampled, and reaction termination was achieved by adding an equal volume of ice-cold acetonitrile containing 100 nM carbamazepine as an internal standard. The supernatants were analyzed using LC-MS/MS after centrifugation at 10,000× g for 10 min at 4 °C. […] Data were normalized for protein concentrations measured using the Pierce™ BCA Protein Assay Kit (Thermo Fisher Scientific, Waltham, MA, USA) following the manufacturer’s instructions. The experiment was performed using four separate samples.

rCYP3A4 = molecular target: T3, rCYP3A4 (Homo sapiens, UniProt P08684); assay: Enzyme activity assay using rCYP3A4 with or without cytochrome b5 (MDZ 1′-hydroxylation); format: biochemical
T3 construct: host or cells: baculovirus-transfected insect cells
Experimental: Incubation mixtures (final volume, 200 μL) contained 0.1 M PPB (pH 7.4), 50 pmol/mL rCYP3A4 with or without cytochrome b5, 1 mM NADPH, 5 μM MDZ, and POH (0–100 μM). After preincubating for 5 min, the reactions were initiated by adding 1 mM NADPH and incubated for 10 min. […] The experiment was performed using three separate samples.

CYP2B6 [4] = molecular target: T2, CYP2B6; assay: Metabolism-dependent inhibition assay (IC50 shift) in pooled HLMs, CYP2B6; conditions: substrate bupropion; for IC50: CYP2B6, pooled HLMs, 95% CI in parentheses
Experimental: The experiments for determining metabolism-dependent inhibition were conducted utilizing a non-dilution method. […] The pre-incubation was initiated by the addition of 1 mM NADPH and incubation for 30 min. Subsequently, final incubation was performed with the addition of a substrate (5 μM coumarin or 50 μM bupropion) in the presence of NADPH for 10 min; the total volume of the mixture was 200 μL. […] Mixtures were subjected to centrifugation at 3000× g for 20 min at 4 °C, and the supernatants were analyzed using LC-MS/MS. The experiment was performed using three separate samples.
The CYP-mediated activities in the presence of test substances were expressed as percentages of the corresponding control values.

CYP2A6 [5] = molecular target: T4, CYP2A6 (Homo sapiens, UniProt P11509); assay: biochemical
T4 sequence (P11509 1-494): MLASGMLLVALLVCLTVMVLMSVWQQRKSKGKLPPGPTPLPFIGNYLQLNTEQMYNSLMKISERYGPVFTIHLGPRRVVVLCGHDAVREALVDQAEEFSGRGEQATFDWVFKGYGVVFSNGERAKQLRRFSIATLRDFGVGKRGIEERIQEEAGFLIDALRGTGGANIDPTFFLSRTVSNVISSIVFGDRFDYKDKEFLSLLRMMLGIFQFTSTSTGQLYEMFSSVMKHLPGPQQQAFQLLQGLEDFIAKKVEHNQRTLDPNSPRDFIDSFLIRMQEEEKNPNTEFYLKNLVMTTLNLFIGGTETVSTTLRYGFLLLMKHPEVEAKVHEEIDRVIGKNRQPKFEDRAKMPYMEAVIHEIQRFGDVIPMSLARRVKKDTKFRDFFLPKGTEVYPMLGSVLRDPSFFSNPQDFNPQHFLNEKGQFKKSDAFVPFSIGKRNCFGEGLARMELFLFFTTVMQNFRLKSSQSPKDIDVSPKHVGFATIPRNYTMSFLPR
Experimental: (§1) A 5 min pre-incubation was performed prior to initiating reactions with the addition of 1 mM NADPH. After incubation at 37 °C for 10 min, 200 μL of ice-cold acetonitrile containing 100 nM carbamazepine as an internal standard was added to terminate the reaction. The samples were agitated and centrifuged at 4 °C for 20 min at 3000× g. The supernatants were transferred to a 96-well plate for LC-MS/MS analysis. The experiment was performed using three separate samples.
(§2) Data acquired from the evaluation of enzyme inhibition using various concentrations of substrates and test compounds were fit to different models (competitive, noncompetitive, uncompetitive, or mixed), and inhibition constant (Ki) and goodness of fit values were obtained using GraphPad Prism. The appropriate type of inhibition was selected based on statistical goodness of fit tests including Akaike’s information criterion (AICc) with correction for small sample size and the standard deviation of the residuals (Sy.x).

CYP2A6 [6] = molecular target: T4, CYP2A6; assay: Determination of CYP inhibition mode and Ki in pooled HLMs, CYP2A6-mediated coumarin 7-hydroxylation
Experimental: as §1, §2

CYP2A6 [7] = molecular target: T4, CYP2A6; assay: Direct CYP inhibition assay in pooled HLMs, CYP2A6 (coumarin); format: in vitro ADME; conditions: pooled HLMs 0.2 mg/mL; substrate coumarin 5 μM; 10 min; 95% CI in parentheses; read-out: IC50 against CYP2A6
CYP2E1 = CYP2E1 (Homo sapiens, UniProt P05181); assay: Direct CYP inhibition assay in pooled HLMs, CYP2E1 (chlorzoxazone); format: in vitro ADME; conditions: pooled HLMs 0.2 mg/mL; substrate chlorzoxazone 50 μM; 10 min; read-out: IC50 against CYP2E1
CYP3A4 [8] = molecular target: T1, CYP3A4; remark: listed apart in the source
CYP2B6 [9] = molecular target: T2, CYP2B6; assay: biochemical
Experimental: as §1, §2

T1 sequence (P08684 whole entry): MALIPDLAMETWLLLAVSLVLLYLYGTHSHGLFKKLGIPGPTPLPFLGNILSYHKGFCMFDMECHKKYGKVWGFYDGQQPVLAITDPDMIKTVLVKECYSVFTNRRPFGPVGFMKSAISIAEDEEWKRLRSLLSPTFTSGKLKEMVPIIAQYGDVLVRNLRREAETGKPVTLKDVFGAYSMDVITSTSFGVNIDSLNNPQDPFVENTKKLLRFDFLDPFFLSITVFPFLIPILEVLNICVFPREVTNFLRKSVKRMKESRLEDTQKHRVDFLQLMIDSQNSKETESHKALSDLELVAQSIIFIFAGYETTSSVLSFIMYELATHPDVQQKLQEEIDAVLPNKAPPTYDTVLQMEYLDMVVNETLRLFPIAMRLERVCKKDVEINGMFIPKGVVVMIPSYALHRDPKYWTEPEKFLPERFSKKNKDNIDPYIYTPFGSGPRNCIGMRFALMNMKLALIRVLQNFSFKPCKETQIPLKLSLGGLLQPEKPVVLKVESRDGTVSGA
T3 sequence (P08684 whole entry): as above
CYP2E1, sequence (P05181 whole entry): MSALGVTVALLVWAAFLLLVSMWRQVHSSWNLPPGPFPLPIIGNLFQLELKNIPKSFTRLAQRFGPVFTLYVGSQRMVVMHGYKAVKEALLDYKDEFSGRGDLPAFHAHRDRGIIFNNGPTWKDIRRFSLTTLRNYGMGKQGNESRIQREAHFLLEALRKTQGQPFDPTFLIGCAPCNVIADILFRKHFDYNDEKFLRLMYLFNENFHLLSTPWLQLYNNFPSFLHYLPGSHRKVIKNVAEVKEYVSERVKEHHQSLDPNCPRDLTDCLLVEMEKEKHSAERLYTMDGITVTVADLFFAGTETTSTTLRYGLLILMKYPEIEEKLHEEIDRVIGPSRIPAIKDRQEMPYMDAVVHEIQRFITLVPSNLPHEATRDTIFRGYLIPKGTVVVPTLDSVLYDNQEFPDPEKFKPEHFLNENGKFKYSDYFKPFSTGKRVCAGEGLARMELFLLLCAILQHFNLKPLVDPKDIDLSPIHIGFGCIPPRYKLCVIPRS
CYP2C9, sequence (P11712 whole entry): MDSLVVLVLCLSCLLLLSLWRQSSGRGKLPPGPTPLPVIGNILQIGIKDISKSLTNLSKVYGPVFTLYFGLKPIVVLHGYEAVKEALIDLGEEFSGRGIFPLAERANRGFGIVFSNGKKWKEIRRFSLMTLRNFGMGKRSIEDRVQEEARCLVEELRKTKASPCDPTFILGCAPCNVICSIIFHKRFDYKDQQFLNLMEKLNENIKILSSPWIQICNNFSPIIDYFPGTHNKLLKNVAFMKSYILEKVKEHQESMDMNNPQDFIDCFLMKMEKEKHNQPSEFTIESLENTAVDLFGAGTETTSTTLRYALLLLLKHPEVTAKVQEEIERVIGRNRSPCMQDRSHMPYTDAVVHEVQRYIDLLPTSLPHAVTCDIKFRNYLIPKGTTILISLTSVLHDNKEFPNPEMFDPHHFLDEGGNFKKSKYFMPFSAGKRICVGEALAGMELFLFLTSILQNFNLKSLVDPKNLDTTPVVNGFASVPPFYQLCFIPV

C=C(C)[C@@H]1CC=C(CO)CC1 [(−)-POH, (−)-perillyl alcohol]
Increase of Vmax/Km value of MDZ 1′-hydroxylation compared with absence of (−)-POH (CYP3A4 [1]): 2.67 fold | Increase of Vmax/Km value of MDZ 1′-hydroxylation compared with absence of (−)-POH (CYP3A4 [1]; listed as POH): 2.7 fold | IC50 (CYP2C9): > 50 µM | IC50 (CYP2B6 [2]): 6.99 µM | Rate of 1′-OH-MDZ formation in hHOs (CYP3A4 [3]; 2.5 μM): 1.86 (1.64–2.07) pmol/h/mg protein | Rate of 1′-OH-MDZ formation in hHOs (CYP3A4 [3]; 10 μM): 2.04 (1.88–2.20) pmol/h/mg protein | Rate of 1′-OH-MDZ formation in hHOs (CYP3A4 [3]; 25 μM): 2.34 (2.18–2.49) pmol/h/mg protein | Rate of 1′-OH-MDZ formation in hHOs (CYP3A4 [3]; 50 μM): 3.21 (2.93–3.48) pmol/h/mg protein | Formation rate of 4-OH-MDZ in hHOs (CYP3A4 [3]; 100 μM): 0.159 ± 0.016 pmol/h/mg protein | Increase of the rate of 1′-OH-MDZ formation compared with absence of (−)-POH (CYP3A4 [3]; 100 μM): 2.05 fold | Enhancement of MDZ 1′-hydroxylation (rCYP3A4; rCYP3A4 in the absence of cytochrome b5, POH 0–100 μM): No significant enhancement | CYP3A4 activity for 1′-OH-MDZ formation compared with control without (−)-POH (rCYP3A4; rCYP3A4 in the presence of cytochrome b5, 100 μM (−)-POH, 5 μM MDZ): 1.57 fold | IC50 (CYP2B6 [4]; IC50, pre-incubation with NADPH, 30 min pre-incubation with NADPH): 13.4 µM | IC50 (CYP2B6 [4]; IC50, pre-incubation without NADPH, 30 min pre-incubation without NADPH): 13.7 µM | IC50 fold-shift, CYP2B6 (CYP2B6 [4]; IC50 without NADPH/IC50 with NADPH): 1.02 | Ki (CYP2A6 [5]): 6.35 µM | Type of inhibition, CYP2A6 (CYP2A6 [6]; best fit by AICc and Sy.x, Dixon plots): mixed inhibition model | Ki, CYP2A6, uncompetitive model (not selected) (CYP2A6 [6]; pooled HLMs, coumarin, 95% CI in parentheses): 10.9 (9.16–12.9) μM | IC50 (CYP2A6 [7]): 15.7 µM | IC50 (CYP2E1): > 50 µM | Formation of 1′-OH-MDZ relative to control without (−)-POH (CYP3A4 [8]; human, 10 min, 50 μM, pH 7.4): 1.83 fold | Effect on CYP3A4 (midazolam) activity, MDZ 1′-hydroxylation (CYP3A4 [8]; pooled HLMs, substrate midazolam, test compound 0–50 μM): Stimulation * | Ki (CYP2B6 [9]): 3.78 µM

— PMC11676982, “Heterotropic Activation of Cytochrome P450 3A4 by Perillyl Alcohol” (Pharmaceutics, 2024)
